Source: PubChem BioAssay AID248 (DTP/NCI, 2004)
“And” between values parts separate entries of the source, which are not always exact repeats. Equal entries are not always repeated. Inconclusive results and toxic doses are left out. Cut-off read from the data, not from the text of the source: active = T/C of 150% or more; inactive = T/C below 125%.

System: L1210 leukemia ip in BDF1 mice, survival T/C
Assay: NCI In Vivo Anticancer Drug Screen. Data for tumor model L1210 Leukemia (intraperitoneal) in B6D2F1 (BDF1) mice
Details: endpoint: mean survival time, higher = longer survival
Method in brief: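 Tumor cells were implanted, animals were treated, and survival was followed. The result divides the treated measurement by the vehicle-control measurement.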

[1] = dose: 100.0 mg/kg/injection, schedule: Q01DX009 (ip), vehicle: Klucel (hydroxypropylcellulose) (HPC)
[2] = dose: 100.0 mg/kg/injection, schedule: Q04DX003 (ip), vehicle: Klucel (hydroxypropylcellulose) (HPC)
[3] = dose: 200.0 mg/kg/injection, schedule: Q01DX009 (ip), vehicle: Klucel (hydroxypropylcellulose) (HPC)
[4] = dose: 200.0 mg/kg/injection, schedule: Q04DX003 (ip), vehicle: Klucel (hydroxypropylcellulose) (HPC)
[5] = dose: 400.0 mg/kg/injection, schedule: Q01DX009 (ip), vehicle: Klucel (hydroxypropylcellulose) (HPC)
[6] = dose: 400.0 mg/kg/injection, schedule: Q04DX003 (ip), vehicle: Klucel (hydroxypropylcellulose) (HPC)
[7] = dose: 25.0 mg/kg/injection, schedule: Q01DX009 (ip), vehicle: saline
[8] = dose: 50.0 mg/kg/injection, schedule: Q01DX009 (ip), vehicle: saline
[9] = dose: 100.0 mg/kg/injection, schedule: Q01DX001 (ip), vehicle: saline
[10] = dose: 100.0 mg/kg/injection, schedule: Q04DX003 (ip), vehicle: saline
[11] = dose: 200.0 mg/kg/injection, schedule: Q01DX001 (ip), vehicle: saline
[12] = dose: 200.0 mg/kg/injection, schedule: Q01DX009 (ip), vehicle: saline
[13] = dose: 200.0 mg/kg/injection, schedule: Q04DX003 (ip), vehicle: saline
[14] = dose: 400.0 mg/kg/injection, schedule: Q01DX001 (ip), vehicle: saline
[15] = dose: 400.0 mg/kg/injection, schedule: Q04DX003 (ip), vehicle: saline
[16] = dose: 12.5 mg/kg/injection, schedule: Q04DX003 (ip), vehicle: saline
[17] = dose: 25.0 mg/kg/injection, schedule: Q04DX003 (ip), vehicle: saline
[18] = dose: 50.0 mg/kg/injection, schedule: Q04DX003 (ip), vehicle: saline
[19] = dose: 100.0 mg/kg/injection, schedule: Q01DX009 (ip), vehicle: saline
[20] = dose: 100.0 mg/kg/injection, schedule: Q04DX002 (ip), vehicle: Klucel (hydroxypropylcellulose) (HPC)
[21] = dose: 200.0 mg/kg/injection, schedule: Q04DX002 (ip), vehicle: Klucel (hydroxypropylcellulose) (HPC)
[22] = dose: 400.0 mg/kg/injection, schedule: Q04DX002 (ip), vehicle: Klucel (hydroxypropylcellulose) (HPC)
[23] = dose: 50.0 mg/kg/injection, schedule: Q01DX009 (ip), vehicle: Klucel (hydroxypropylcellulose) (HPC)
[24] = dose: 75.0 mg/kg/injection, schedule: Q01DX001 (ip), vehicle: saline

Measured: T/C

COc1ccc(CN(CCOC(=O)c2ccc(OC)cc2)CCN(CCOC(=O)c2ccc(OC)cc2)Cc2ccc(OC)cc2)cc1
inactive: dose: 12.5 mg/kg/injection, schedule: Q01DX009 (ip), vehicle: other 91 % of control | dose: 25.0 mg/kg/injection, schedule: Q01DX009 (ip), vehicle: other 86 % of control | dose: 25.0 mg/kg/injection, schedule: Q01DX009 (ip), vehicle: water 88 % of control | dose: 50.0 mg/kg/injection, schedule: Q01DX009 (ip), vehicle: other 91 % of control | dose: 50.0 mg/kg/injection, schedule: Q01DX009 (ip), vehicle: water 93 % of control | dose: 100.0 mg/kg/injection, schedule: Q01DX009 (ip), vehicle: other 88 % of control | dose: 100.0 mg/kg/injection, schedule: Q01DX009 (ip), vehicle: water 87 % of control | dose: 200.0 mg/kg/injection, schedule: Q01DX009 (ip), vehicle: water 88 % of control | dose: 400.0 mg/kg/injection, schedule: Q01DX009 (ip), vehicle: water 92 % of control

CCCCNC(=O)Nc1ccc(C)c(Cl)c1
inactive: [1] 96 % of control | [2] 94 % of control | [3] 94 % of control | [4] 94 % of control | [5] 89 % of control | [6] 100 % of control

CC(C)NNC(=O)c1cccnc1
inactive: [7] 97 % of control and 108 % of control | [8] 94 % of control and 103 % of control | [9] 95 % of control | [10] 96 % of control | [11] 96 % of control | [12] 94 % of control | [13] 98 % of control | [14] 95 % of control | [15] 96 % of control

CN1CCCN(C)C1c1ccccc1O
inactive: [16] 96 % of control | [17] 106 % of control | [18] 101 % of control

S=c1[nH]c2[nH]cnc(=S)c2[nH]1
inactive: [9] 97 % of control | [11] 97 % of control

OC(CC(O)(C(F)(F)Cl)C(F)(F)Cl)c1cccs1 (stereo not drawn)
inactive: [10] 93 % of control | [13] 95 % of control | [15] 105 % of control

Cn1c(O)c(C=N)c(=O)[nH]c1=O
inactive: [19] 86 % of control | [10] 90 % of control | [12] 88 % of control | [13] 92 % of control | dose: 400.0 mg/kg/injection, schedule: Q01DX009 (ip), vehicle: saline 86 % of control | [15] 90 % of control

O=c1scc(-c2ccccc2)s1
inactive: [20] 113 % of control | [21] 88 % of control | [22] 106 % of control

CC(=O)OCCC/C(=C\c1ccc(F)cc1)[N+](=O)[O-]
inactive: dose: 100.0 mg/kg/injection, schedule: Q01DX001 (ip), vehicle: other 111 % of control

Cc1cnc(N[N+](=O)[O-])nc1-c1ccccc1O
inactive: [20] 96 % of control | [21] 108 % of control | [22] 105 % of control

N=C(N)c1ccc(-n2cc3cc(C(=N)N)ccc3n2)cc1
inactive: dose: 6.25 mg/kg/injection, schedule: Q04DX003 (ip), vehicle: saline 96 % of control and 110 % of control | [16] 100 % of control | [17] 106 % of control and 91 % of control

NC(Cc1ccccc1)C(=O)NCCCCCCCCCCNC(=O)C(N)Cc1ccccc1 (stereo not drawn)
inactive: dose: 50.0 mg/kg/injection, schedule: Q01DX001 (ip), vehicle: saline 98 % of control | [9] 104 % of control | [11] 103 % of control

N#Cc1c(N)ncc2c1CCCC2
inactive: [23] 102 % of control | [1] 98 % of control | [3] 105 % of control

Cc1ccc(S(=O)(=O)OCCCCOS(=O)(=O)c2ccc(C)cc2)cc1
inactive: [1] 99 % of control | [2] 91 % of control | [3] 89 % of control | [4] 100 % of control | [5] 100 % of control | [6] 105 % of control

CC[N+](C)(CC)CCNC(c1ccc(OC)c(OC)c1)C(Cl)(Cl)Cl (stereo not drawn)
inactive: [24] 88 % of control

Cc1ccc(N)cc1S(=O)(=O)F
inactive: [24] 107 % of control | dose: 150.0 mg/kg/injection, schedule: Q01DX001 (ip), vehicle: saline 98 % of control | dose: 300.0 mg/kg/injection, schedule: Q01DX001 (ip), vehicle: saline 103 % of control

c1ccc2c(c1)NC(SSC1Nc3ccccc3S1)S2 (stereo not drawn)
inactive: [9] 94 % of control | [11] 88 % of control | [14] 94 % of control

COc1cccc(CC2=C3CCCN(C(=O)c4ccccc4)C3CCC2=O)c1 (stereo not drawn)
inactive: dose: 100.0 mg/kg/injection, schedule: Q01DX009 (ip), vehicle: saline sonified 98 % of control | dose: 200.0 mg/kg/injection, schedule: Q01DX009 (ip), vehicle: saline sonified 96 % of control | dose: 400.0 mg/kg/injection, schedule: Q01DX009 (ip), vehicle: saline sonified 96 % of control

CCCCC(=O)N/N=C\c1c(O)cc(OC)cc1OC
inactive: dose: 100.0 mg/kg/injection, schedule: Q01DX001 (ip), vehicle: carboxymethylcellulose (CMC) 87 % of control | dose: 200.0 mg/kg/injection, schedule: Q01DX001 (ip), vehicle: carboxymethylcellulose (CMC) 87 % of control | dose: 400.0 mg/kg/injection, schedule: Q01DX001 (ip), vehicle: carboxymethylcellulose (CMC) 93 % of control

CCOC(=O)C(C)CC(C)(C(=O)OCC)C(=O)OCC (stereo not drawn)
inactive: dose: 25.0 mg/kg/injection, schedule: Q04DX003 (ip), vehicle: Klucel (hydroxypropylcellulose) (HPC) 98 % of control | [23] 93 % of control | dose: 50.0 mg/kg/injection, schedule: Q04DX003 (ip), vehicle: Klucel (hydroxypropylcellulose) (HPC) 103 % of control | [1] 104 % of control | [2] 98 % of control and 103 % of control | [3] 100 % of control

O=C(OC1C=CCC1)c1ccc([N+](=O)[O-])cc1 (stereo not drawn)
inactive: [2] 97 % of control | [4] 93 % of control | [6] 93 % of control

O=C1CCC2(CCCc3c2ccc2ccccc32)O1 (stereo not drawn)
inactive: [18] 97 % of control | [10] 97 % of control | [13] 90 % of control

CCN1C(=O)/C(=C\c2ccccc2)N=C1C
inactive: dose: 12.5 mg/kg/injection, schedule: Q01DX009 (ip), vehicle: DMSO 92 % of control | dose: 25.0 mg/kg/injection, schedule: Q01DX009 (ip), vehicle: DMSO 94 % of control | dose: 50.0 mg/kg/injection, schedule: Q01DX009 (ip), vehicle: DMSO 96 % of control

Cc1cc(C)c(S(=O)(=O)O)c(Cc2cccc3ccccc23)c1
inactive: [7] 94 % of control | [8] 102 % of control | [18] 94 % of control | [9] 93 % of control | [19] 96 % of control | [10] 98 % of control | [11] 88 % of control

CC(=O)Nc1ccc(C(=O)/C=C/C(=O)O)c(O)c1
inactive: [10] 98 % of control | [13] 100 % of control | [15] 100 % of control
